Values of other authors, collected in patent US20210379148A1, “REGULATING MUSCLE PHYSIOLOGY AND ENERGY METABOLISM USING CRYM” (University Of Maryland, Baltimore, priority 2020, published 2021).

Target: thyroid hormone receptors (TR) α and β
Conditions: read-out: KD, binding to thyroid hormone receptors (TR) α and β
In the case of N[C@@H](Cc1cc(I)c(Oc2cc(I)c(O)c(I)c2)c(I)c1)C(=O)O [T4], the Kd is given as 2 nM.

Target: μ-crystallin ketimine reductase (Homo sapiens, UniProt Q14894)
Sequence (Q14894 whole entry): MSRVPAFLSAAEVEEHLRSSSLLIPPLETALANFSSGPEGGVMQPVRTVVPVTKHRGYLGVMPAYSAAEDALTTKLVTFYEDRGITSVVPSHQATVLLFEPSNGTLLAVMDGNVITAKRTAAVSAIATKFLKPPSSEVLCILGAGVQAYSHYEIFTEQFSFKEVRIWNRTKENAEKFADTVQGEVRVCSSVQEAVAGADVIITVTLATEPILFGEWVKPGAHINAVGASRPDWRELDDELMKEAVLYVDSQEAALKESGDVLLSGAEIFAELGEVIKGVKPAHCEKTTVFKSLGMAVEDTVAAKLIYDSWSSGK
Conditions: read-out: K1, inhibition of μ-crystallin's activity as a ketimine reductase
For N[C@@H](Cc1cc(I)c(Oc2cc(I)c(O)c(I)c2)c(I)c1)C(=O)O [T4], the Ki is listed as 0.75 nM.

Tested on: CRYM mRNA
Conditions: not given
In the case of C[C@]12CCC(=O)C[C@@H]1CC[C@@H]1[C@@H]2CC[C@]2(C)[C@@H](O)CC[C@@H]12 [Dihydrotestosterone], the “expression of CRYM mRNA” value is given as “Dihydrotestosterone results in increased expression of CRYM”.
In the case of [K+].[K+].[O]=[Cr](=[O])([O-])[O][Cr](=[O])(=[O])[O-] [Potassium Dichromate], the “expression of CRYM mRNA” value is listed as “Potassium Dichromate results in increased expression of”.

Same assay, conditions: Methionine deficiency co-treated with Choline deficiency co-treated with Folic Acid deficiency
In the case of Nc1nc2ncc(CNc3ccc(C(=O)N[C@@H](CCC(=O)O)C(=O)O)cc3)nc2c(=O)[nH]1 [Folic Acid], the “expression of CRYM mRNA” value is given as “treated with Folic Acid deficiency] results in increased”.
For CSCC[C@H](N)C(=O)O [Methionine], the “expression of CRYM mRNA” value is given as “treated with Folic Acid deficiency] results in increased”.

Same assay, conditions: NOG protein co-treated with entinostat, dorsomorphin and 4-(5-benzo(1,3)dioxol-5-yl-4-pyridin-2-yl-1H-imidazol-2-yl)benzamide
In the case of NC(=O)c1ccc(-c2nc(-c3ccccn3)c(-c3ccc4c(c3)OCO4)[nH]2)cc1 [4-(5-benzo(1,3)dioxol-5-yl-4-pyridin-2-yl-1H-imidazol-2-yl)benzamide], the “expression of CRYM mRNA” value is listed as “pyridin-2-yl-1H-imidazol-2-yl)benzamide] results in increased”.
For Nc1ccccc1NC(=O)c1ccc(CNC(=O)OCc2cccnc2)cc1 [entinostat], the “expression of CRYM mRNA” value is listed as “pyridin-2-yl-1H-imidazol-2-yl)benzamide] results in increased”.

Same assay, conditions: Oxaliplatin co-treated with Topotecan
For O=C1[O][Pt]2([NH][C@@H]3CCCC[C@H]3[NH]2)[O]C1=O [Oxaliplatin], the “expression of CRYM mRNA” value is listed as “[Oxaliplatin co-treated with Topotecan] results in increased”.

Same assay, conditions: chemical alone
For c1ccc2c(c1)ccc1cc3c(ccc4ccccc43)cc12 [1,2,5,6-dibenzanthracene], the “expression of CRYM mRNA” value is given as 1,2,5,6-dibenzanthracene results in increased expression of.
For C=CC=C [1,3-butadiene], the “expression of CRYM mRNA” value is listed as 1,3-butadiene results in increased expression of CRYM.
For Clc1cnc(Oc2ccc(Oc3ncc(Cl)cc3Cl)cc2)c(Cl)c1 [1,4-bis(2-(3,5-dichloropyridyloxy))benzene], the “expression of CRYM mRNA” value is given as “increased expression of CRYM mRNA”.
In the case of CC(N)Cc1ccccc1 (stereo not drawn) [Amphetamine], the “expression of CRYM mRNA” value is given as “Amphetamine results in increased expression of CRYM”.
For c1ccc2c(c1)cc1ccc3cccc4ccc2c1c34 [Benzo(a)pyrene], the “expression of CRYM mRNA” value is given as “Benzo(a)pyrene results in increased expression of CRYM”.
In the case of ClC(Cl)(Cl)Cl [Carbon Tetrachloride], the “expression of CRYM mRNA” value is given as “Carbon Tetrachloride results in increased expression of”.
For CCCCOC(=O)c1ccccc1C(=O)OCCCC [Dibutyl Phthalate], the “expression of CRYM mRNA” value is given as “Dibutyl Phthalate results in increased expression of CRYM”.
In the case of CCO [Ethanol], the “expression of CRYM mRNA” value is listed as “Ethanol results in increased expression of CRYM mRNA”.
In the case of CC1=C(/C=C/C(C)=C/C=C/C(C)=C/C(=O)Nc2ccc(O)cc2)C(C)(C)CCC1 [Fenretinide], the “expression of CRYM mRNA” value is given as “Fenretinide results in increased expression of CRYM mRNA”.
In the case of O=C1[O][Pt]2([NH][C@@H]3CCCC[C@H]3[NH]2)[O]C1=O [Oxaliplatin], the “expression of CRYM mRNA” value is given as “Oxaliplatin results in increased expression of CRYM mRNA”.
In the case of CCCc1cc(=O)[nH]c(=S)[nH]1 [Propylthiouracil], the “expression of CRYM mRNA” value is given as “Propylthiouracil results in increased expression of CRYM”.
For O=c1c(O)c(-c2ccc(O)c(O)c2)oc2cc(O)cc(O)c12 [Quercetin], the “expression of CRYM mRNA” value is given as “Quercetin results in increased expression of CRYM mRNA”.
For Clc1cc2c(cc1Cl)Oc1cc(Cl)c(Cl)cc1O2 [Tetrachlorodibenzodioxin], the “expression of CRYM mRNA” value is given as “Tetrachlorodibenzodioxin results in increased expression of”.
In the case of CC[C@@]1(O)C(=O)OCc2c1cc1n(c2=O)Cc2cc3c(CN(C)C)c(O)ccc3nc2-1 [Topotecan], the “expression of CRYM mRNA” value is listed as “Topotecan results in increased expression of CRYM mRNA”.
For CC1=C(/C=C/C(C)=C/C=C/C(C)=C/C(=O)O)C(C)(C)CCC1 [Tretinoin], the “expression of CRYM mRNA” value is given as “Tretinoin results in increased expression of CRYM mRNA”.
For CCCC(CCC)C(=O)O [Valproic Acid], the “expression of CRYM mRNA” value is given as “Valproic Acid results in increased expression of CRYM”.
In the case of CN[C@@H](Cc1c[nH]c2ccccc12)C(=O)O [abrine], the “expression of CRYM mRNA” value is given as “abrine results in increased expression of CRYM mRNA”.
For CNC(=O)O[C@@H](CC(C)C)c1nc([C@H]2OC(=O)/C=C/C/C(C)=C/[C@@H](O)[C@@H](C)\C=C(C)/C=C(C)\C=C\[C@@H](O)[C@H](C)[C@H](OC)/C(C)=C/C=C/[C@@H]2C)cs1 [archazolid B], the “expression of CRYM mRNA” value is given as “archazolid B results in increased expression of CRYM mRNA”.
In the case of O=S(=O)(c1ccc(O)cc1)c1ccc(O)cc1 [bis(4-hydroxyphenyl)sulfone], the “expression of CRYM mRNA” value is given as “bis(4-hydroxyphenyl)sulfone results in increased expression”.
For Oc1ccc(Cc2ccc(O)cc2)cc1 [bisphenol F], the “expression of CRYM mRNA” value is given as “bisphenol F results in increased expression of CRYM mRNA”.
For CCCC=O [butyraldehyde], the “expression of CRYM mRNA” value is given as “butyraldehyde results in increased expression of CRYM”.
For Nc1ccccc1NC(=O)c1ccc(CNC(=O)OCc2cccnc2)cc1 [entinostat], the “expression of CRYM mRNA” value is given as “entinostat results in increased expression of CRYM mRNA”.
In the case of CCCCC=O [pentanal], the “expression of CRYM mRNA” value is listed as “pentanal results in increased expression of CRYM mRNA”.
For CCC=O [propionaldehyde], the “expression of CRYM mRNA” value is given as “propionaldehyde results in increased expression of CRYM”.

Tested on: CRYM protein
Conditions: chemical alone
In the case of CN[C@@H](C)Cc1ccccc1 [Methamphetamine], the “expression of CRYM protein” value is given as “Methamphetamine results in increased expression of CRYM”.
For C[C@@H]1Cc2c(Cl)cc(C(=O)N[C@@H](Cc3ccccc3)C(=O)O)c(O)c2C(=O)O1 [ochratoxin A], the “expression of CRYM protein” value is listed as “ochratoxin A results in increased expression of CRYM protein”.

Tested on: skeletal muscles (soleus, EDL)
Conditions: rats, thyrotoxic doses of T3 and T4
In the case of N[C@@H](Cc1cc(I)c(Oc2ccc(O)c(I)c2)c(I)c1)C(=O)O [T3, triiodothyronine], the “effect on fast twitch extensor digitorum longus (EDL) muscles” value is given as “no effect”.
In the case of N[C@@H](Cc1cc(I)c(Oc2cc(I)c(O)c(I)c2)c(I)c1)C(=O)O [T4], the “effect on fast twitch extensor digitorum longus (EDL) muscles” value is listed as “no effect”.

Same assay, conditions: rats, thyrotoxic doses of T3 and T4; without accompanying changes in contractile velocity
In the case of N[C@@H](Cc1cc(I)c(Oc2ccc(O)c(I)c2)c(I)c1)C(=O)O [T3, triiodothyronine], the “effect on slow twitch soleus muscle” value is listed as “shift in slow twitch soleus muscle from slow to faster characteristics”.
In the case of N[C@@H](Cc1cc(I)c(Oc2cc(I)c(O)c(I)c2)c(I)c1)C(=O)O [T4], the “effect on slow twitch soleus muscle” value is given as “shift in slow twitch soleus muscle from slow to faster characteristics”.
